The values below come from article PMC9680624 (RSC Advances, 2022).

As usually defined, the IC50 is the concentration needed to halve the response being measured.

Molecules are shown by their SMILES. Converted amounts (≈) assume the structure as drawn.

For series [1], the system named is HepG-2. Put plainly: In vitro anti-proliferative activity, MTT assay. In kind it is cell-based. Conditions: Homo sapiens, HepG2, 24 h, read-out: In vitro cytotoxicity IC50 HepG-2. On the technique in general: Tetrazolium assays rely on reduction of a dye to a coloured formazan, in cell work by metabolically active cells.
Series [2] concerns PC3. The series is described as follows: In vitro anti-proliferative activity, MTT assay. Conditions: Homo sapiens, PC-3, 24 h, read-out: In vitro cytotoxicity IC50 PC3. In kind it is cell-based.
For series [3], the system named is MCF-7. The series is described as follows: In vitro anti-proliferative activity, MTT assay. The note with it: Homo sapiens, MCF7, 24 h, read-out: In vitro cytotoxicity IC50 MCF-7. In kind it is cell-based.
Series [4] has as its system NF-κB P65. The series is described as follows: NF-κB P65 level in HepG-2 cell lysate, ELISA. In kind it is cell-based, human. The note with it: 72 h, control 278.1. For orientation: In an ELISA, binding on a coated surface is turned into a signal by an enzyme label.
Series [5] has as its system Vero cells. The series is described as follows: Cytotoxicity against Vero cells, MTT assay. Conditions: for Selectivity index (SI) HepG-2: SI = cytotoxicity against Vero cells/cytotoxicity against HepG-2 cell line; for Selectivity index (SI) PC3: SI = cytotoxicity against Vero cells/cytotoxicity against PC3 cell line. In kind it is cell-based.
Series [6] is described as follows: Cytotoxicity against Vero cells, MTT assay. In kind it is cell-based. The note with it: African green monkey, Vero cells (normal, non-cancerous cell line).
The test system of series [7] is VEGF. The series is described as follows: VEGF level in HepG-2 cell supernatant, ELISA. Conditions: HepG-2 supernatant, 10 μM, 72 h, control 432.5. In kind it is cell-based, human.
Series [8] has as its system caspase-8. Put plainly: Caspase-8 level in HepG-2 cell supernatant, ELISA. In kind it is cell-based, human. The note with it: for increase of caspase-8 level: HepG-2 cells, versus control cells; for CASPASE-8 level: HepG-2 supernatant, ELISA, 10 μM, 72 h, control 1.08.
In series [9] the test system is TNF-α. The series is described as follows: TNF-α level in HepG-2 cell supernatant, ELISA. The note with it: HepG-2 supernatant, 10 μM, 72 h, control 162.5. In kind it is cell-based, human.

Take `Fc1ccc(Nc2nc(Cl)nc3ccccc23)cc1Cl` [Compound 6, 2-Chloro-N-(3-chloro-4-fluorophenyl)quinazolin-4-amine]: the figures for the IC50 in series [1], in [2] and in [3] were 74.8 ± 4.1 µg/mL (≈ 243 µM), 85 ± 4.7 µg/mL (≈ 276 µM) and 81.5 ± 4.2 µg/mL (≈ 265 µM), respectively.

As for `CNc1nc(Nc2ccc(F)c(Cl)c2)c2ccccc2n1` [Compound 7a, N ^4-(3-Chloro-4-fluorophenyl)-N^2-methylquinazoline-2,4-diamine], the IC50 in series [1] came out at 40.5 ± 2.8 µg/mL (≈ 134 µM); in [2], 47.2 ± 2.8 µg/mL (≈ 156 µM); in series [3], 28.1 ± 2.1 µg/mL (≈ 92.9 µM).

On to `CCNc1nc(Nc2ccc(F)c(Cl)c2)c2ccccc2n1` [Compound 7b, N ^4-(3-Chloro-4-fluorophenyl)-N^2-ethylquinazoline-2,4-diamine], for which, in [4], the “NFκB P65 level” value is 113.7 pg/mL. For the same compound, in series [5], the “Selectivity index (SI) HepG-2” value turned out to be 13.78. Also, the “Selectivity index (SI) MCF-7” value in series [5] (SI = cytotoxicity against Vero cells/cytotoxicity against MCF-7 cell line) is recorded as 17.04. In addition, the “Selectivity index (SI) PC3” value in [5] is given as 10.40. The IC50 in series [6] worked out at 163.6 ± 1.12 µg/mL (≈ 516 µM); in [1], 11.7 ± 0.8 µg/mL (≈ 36.9 µM); in [2], 15.5 ± 1.3 µg/mL (≈ 48.9 µM); in series [3] it was 9.45 ± 0.9 µg/mL (≈ 29.8 µM). Further, the VEGF level in series [7] worked out at 218.5 pg/mL. For the same compound, the “increase of caspase-8 level” value in [8] is “threefold increase”. The CASPASE-8 level in [8] is given as 3.2 ng mL^−1. The compound also registered a TNF-α level in series [9] of 79.3 pg/mL.

For `Fc1ccc(Nc2nc(Cl)nc3cccc(Cl)c23)cc1Cl` [Compound 11a, 2,5-Dichloro-N-(3-chloro-4-fluorophenyl)quinazolin-4-amine], the IC50 in [1] worked out at 77.2 ± 4.2 µg/mL (≈ 225 µM); in [2] it was 91.3 ± 4.9 µg/mL (≈ 266 µM); in [3], 86.1 ± 4.4 µg/mL (≈ 251 µM).

Take `Fc1ccc(Nc2nc(Cl)nc3ccc(Cl)cc23)cc1Cl` [Compound 11b, 2,6-Dichloro-N-(3-chloro-4-fluorophenyl)quinazolin-4-amine]: the figures for the IC50 in series [1], in series [2] and in series [3] were 38.7 ± 2.8 µg/mL (≈ 113 µM), 51.2 ± 3.5 µg/mL (≈ 149 µM) and 45.9 ± 3 µg/mL (≈ 134 µM), respectively.

As to `O=C1CCC(Nc2nc(Cl)nc3cccc(Cl)c23)C(=O)N1` (stereo not shown) [Compound 13a, 3-((2,5-Dichloroquinazolin-4-yl)amino)piperidine-2,6-dione], the IC50 in series [1] is 46.3 ± 3.1 µg/mL (≈ 142 µM); in series [2] it was 54.3 ± 3 µg/mL (≈ 167 µM); in series [3], 35.3 ± 2.4 µg/mL (≈ 109 µM).

`O=C1CCC(Nc2nc(Cl)nc3ccc(Cl)cc23)C(=O)N1` (stereo not shown) [Compound 13b, 3-((2,6-Dichloroquinazolin-4-yl)amino)piperidine-2,6-dione]: the IC50 amounted to 59 ± 3.3 µg/mL (≈ 181 µM) in series [1], 38.4 ± 3.1 µg/mL (≈ 118 µM) in [2] and 29.3 ± 2.3 µg/mL (≈ 90.2 µM) in series [3].

For the compound `NC(=O)NNc1nc(Cl)nc2cccc(Cl)c12` [Compound 15a, 2-(2,5-Dichloroquinazolin-4-yl)hydrazine-1-carboxamide], the IC50 in [1] was found to be 24.5 ± 2 µg/mL (≈ 90.1 µM); in series [2], 26.1 ± 2 µg/mL (≈ 95.8 µM); in series [3], 17.3 ± 1.3 µg/mL (≈ 63.7 µM).

Take `NC(=O)NNc1nc(Cl)nc2ccc(Cl)cc12` [Compound 15b, 2-(2,6-Dichloroquinazolin-4-yl)hydrazine-1-carboxamide]: the values for the IC50 in series [1], in series [2] and in series [3] were 16.2 ± 1.4 µg/mL (≈ 59.5 µM), 13.8 ± 1.2 µg/mL (≈ 50.7 µM) and 9.87 ± 0.9 µg/mL (≈ 36.3 µM), respectively.

`Cc1ccc(S(=O)(=O)NNc2nc(Cl)nc3cccc(Cl)c23)cc1` [Compound 19a, N′-(2,5-Dichloroquinazolin-4-yl)-4-methylbenzenesulfonohydrazide]: the IC50 in [1] was found to be 19.1 ± 1.5 µg/mL (≈ 49.8 µM); in [2], 21.5 ± 1.6 µg/mL (≈ 56 µM); in [3], 12.8 ± 1 µg/mL (≈ 33.3 µM).

Consider `O=S(=O)(NNc1nc(Cl)nc2cccc(Cl)c12)c1ccc(F)cc1` [Compound 19b, N′-(2,5-Dichloroquinazolin-4-yl)-4-fluorobenzenesulfonohydrazide], for which the IC50 in [1] came out at 28.9 ± 2.2 µg/mL (≈ 74.7 µM); in [2], 32.7 ± 2.3 µg/mL (≈ 84.5 µM); in [3] it was 20.5 ± 1.5 µg/mL (≈ 52.9 µM).

In the case of `Cc1ccc(S(=O)(=O)NNc2nnc(Cl)c3ccccc23)cc1` [Compound 24a, N′-(4-Chlorophthalazin-1-yl)-4-methylbenzenesulfonohydrazide], the IC50 was 3.87 ± 0.2 µg/mL (≈ 11.1 µM) in [1], 8.63 ± 0.6 µg/mL (≈ 24.7 µM) in series [2] and 6.07 ± 0.7 µg/mL (≈ 17.4 µM) in series [3].

For the compound `O=S(=O)(NNc1nnc(Cl)c2ccccc12)c1ccc(F)cc1` [Compound 24b, N′-(4-Chlorophthalazin-1-yl)-4-fluorobenzenesulfonohydrazide], the “NFκB P65 level” value in series [4] stood at 76.5 pg/mL. For the same compound, the “Selectivity index (SI) HepG-2” value in series [5] is recorded as 65.18. The “Selectivity index (SI) PC3” value in series [5] is 39.80. Moreover, the IC50 in series [6] was 161.1 ± 1.42 µg/mL (≈ 457 µM); in [1], 2.51 ± 0.1 µg/mL (≈ 7.11 µM); in [2], 4.11 ± 0.3 µg/mL (≈ 11.7 µM); in series [3] it was 5.8 ± 0.4 µg/mL (≈ 16.4 µM). The compound further returned a VEGF level in series [7] of 185.3 pg/mL. The “increase of caspase-8 level” value in series [8] was “about 7 folds”. Besides, the CASPASE-8 level in [8] is 6.9 ng mL^−1. For the same compound, the TNF-α level in series [9] was determined as 82.5 pg/mL.

For the compound `O=S(=O)(NNc1nnc(Cl)c2ccccc12)c1ccccc1` [Compound 24c, N′-(4-Chlorophthalazin-1-yl)benzenesulfonohydrazide], the IC50 in series [1] came to 7.96 ± 0.5 µg/mL (≈ 23.8 µM); in series [2], 14.9 ± 1.1 µg/mL (≈ 44.6 µM); in series [3] it was 8.12 ± 0.7 µg/mL (≈ 24.3 µM).

With `O=C1CCC(N2C(=O)c3ccccc3C2=O)C(=O)N1` (stereo not shown) [Thalidomide, thalidomide, reference compound], the “NFκB P65 level” value in [4] was determined as 110.5 pg/mL. Moreover, the VEGF level in [7] amounted to 153.2 pg/mL. For the same compound, the “increase of caspase-8 level” value in series [8] is on record as 8 folds. The same compound returned a CASPASE-8 level in [8] of 8.3 ng mL^−1. Further, the IC50 in series [1] worked out at 11.3 ± 0.54 µg/mL (≈ 43.6 µM); in series [2], 16.9 ± 0.7 µg/mL (≈ 65.3 µM); in series [3], 14.6 ± 0.57 µg/mL (≈ 56.5 µM). For the same compound, the TNF-α level in [9] stood at 53.1 pg/mL.
